In patent US20260317319A1, “NOVEL ERGOLINES AND METHODS OF TREATING MOOD DISORDERS” (Gilgamesh Pharma Inc., priority 2023, published 2026):
pEC50, pKi: −log10 of the molar value. Where two headings read alike, the source gives them in different places.

How the values were obtained:
5-HT2B receptor = target: T1, 5-HT2B receptor (Homo sapiens, UniProt P41595); assay: cell-based; assay type: cell-based; conditions: Ca2+ flux; for Emax: HEK293, agonist, HEK293, max dose, read-out: 5-HT2B % Act @ Max Dose; for pEC50: agonist, HEK293
T1 construct: expressed in transfected cells; host or cells: HEK293, stably transfected
Experimental: (§1) Functional Assays at 5-HT2A, 5-HT2B, and 5-HT1A. Agonist activity at 5-HT2A, 5-HT2B, 5HT2C and 5-HT1A receptors was determined using a FLIPR Ca^2+ flux assay at WuXi AppTec (Hong Kong) Limited according to their standard protocols. Briefly, stably transfected cells expressing the receptor of interest and Gα15 in the case of 5-HT1A (HEK293 for 5-HT2A and 5-HT2B; CHO cells for 5-HT1A) were grown and plated in a 384 well plate and incubated at 37° C. and 5% CO2 overnight. A solution of 250 mM probenecid in 1 mL FLIPR assay buffer was prepared fresh. This was combined with a fluorescent dye (Fluo-4 Direct™) to make a final assay concentration of 2.5 mM. […] The fluorescent dye was then added to the assay plate along with assay buffer to a final volume of 40 μL. The cell plate was incubated for 50 min at 37° C. and 5% CO2 and placed into the FLIPR Tetra along with the compound plate. 10 μL of references and compounds were then transferred from the compound plate into the cell plate and the fluorescent signal was read.

5-HT1B receptor = target: T2, 5-HT1B receptor (Homo sapiens, UniProt P28222); assay: cAMP accumulation functional assay at 5-HT1B; assay type: cell-based; conditions: agonist, cAMP accumulation, max dose; read-out: 5-HT1B % Act @ Max Dose
T2 construct: expressed in transfected cells
Experimental: Functional Assay at 5-HT1B. Agonist activity at 5-HT1B was determined using a CAMP accumulation protocol at WuXi AppTec (Hong Kong) Limited according to their standard protocols. Briefly, stably transfected cells were plated in an OptiPlate-384 well plate, incubated at RT for 60 mins, and cAMP standard solution (800 nM, 10 μL) was added to the blank well. Then, 10 μL detection reagent was added to each well, the plate incubated for 60 mins at RT, and the plate read using En Vision.

5-HT2A receptor [1] = target: T3, 5-HT2A receptor (Homo sapiens, UniProt P28223); assay: cell-based; assay type: cell-based; parameters: expressed in transfected cells; host or cells: HEK293, stably transfected; conditions: Ca2+ flux; for Emax: HEK293, agonist, HEK293, max dose, read-out: 5-HT2A % Act @ Max Dose; for pEC50: agonist, HEK293
Experimental: as §1

5-HT1A receptor = target: T4, 5-HT1A receptor (Homo sapiens, UniProt P08908); assay: cell-based; conditions: agonist, Ca2+ flux; for Emax: CHO, CHO cells with Gα15, max dose, read-out: 5-HT1A % Act @ Max Dose; for pEC50: CHO cells with Gα15
T4 construct: expressed in transfected cells; host or cells: CHO cells, stably transfected
T4 sequence (P08908 1-422): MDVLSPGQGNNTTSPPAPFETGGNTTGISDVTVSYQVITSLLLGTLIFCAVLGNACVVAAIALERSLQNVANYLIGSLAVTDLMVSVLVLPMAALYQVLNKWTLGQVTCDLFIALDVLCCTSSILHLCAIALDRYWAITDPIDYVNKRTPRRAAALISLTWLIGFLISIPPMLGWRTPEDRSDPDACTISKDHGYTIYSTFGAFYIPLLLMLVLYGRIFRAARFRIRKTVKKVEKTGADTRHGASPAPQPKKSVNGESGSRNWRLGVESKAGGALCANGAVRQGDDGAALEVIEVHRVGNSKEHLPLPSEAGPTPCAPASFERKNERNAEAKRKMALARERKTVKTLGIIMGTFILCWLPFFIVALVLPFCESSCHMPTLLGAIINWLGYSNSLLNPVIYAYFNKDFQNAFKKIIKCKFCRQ
Experimental: as §1

in vitro [2] = assay type: in vitro ADME, mouse; conditions: mouse, microsomes, MLM (male CD-1) 0.50 mg/mL, NADPH 1 mM, 1 μM compound, pH 7.4, 37° C., 60 min; for microsomal CLint: read-out: Intrinsic clearance (Clint); for half-life: read-out: half-life (t1/2)
Description: MLM Stability Pooled MLM from male CD-1 mice (BIOIVT M00501) were used.

in vitro [3] = assay type: in vitro ADME, human; conditions: human, microsomes, HLM 0.50 mg/mL, NADPH 1 mM, 1 μM compound, pH 7.4, 37° C., 60 min; for microsomal CLint: read-out: Intrinsic clearance (Clint); for half-life: read-out: half-life (t1/2)
in vitro [4] = assay type: in vitro ADME, rat; conditions: rat, microsomes, RLM (male Sprague-Dawley) 0.50 mg/mL, NADPH 1 mM, 1 μM compound, pH 7.4, 37° C., 60 min; for microsomal CLint: read-out: Intrinsic clearance (Clint); for half-life: read-out: half-life (t1/2)
Description: RLM Stability Pooled RLM from male Sprague-Dawley rats (Xenotech R1000) were used.

5-HT2A receptor [5] = target: T3, 5-HT2A receptor; assay: biochemical; assay type: binding; parameters: expressed in transfected cells; host or cells: HEK293, stably transfected; conditions: [3H]ketanserin 1 nM; HEK293 stable cell line; 1 h, 25 °C
Experimental: Affinity of the test compounds for the 5-HT2A receptor was determined in radioligand binding experiments with [^3H]ketanserin by WuXi AppTec (Hong Kong) Limited, using methods adapted from the literature and under conditions described in Table 1.

T3 sequence (P28223 whole entry): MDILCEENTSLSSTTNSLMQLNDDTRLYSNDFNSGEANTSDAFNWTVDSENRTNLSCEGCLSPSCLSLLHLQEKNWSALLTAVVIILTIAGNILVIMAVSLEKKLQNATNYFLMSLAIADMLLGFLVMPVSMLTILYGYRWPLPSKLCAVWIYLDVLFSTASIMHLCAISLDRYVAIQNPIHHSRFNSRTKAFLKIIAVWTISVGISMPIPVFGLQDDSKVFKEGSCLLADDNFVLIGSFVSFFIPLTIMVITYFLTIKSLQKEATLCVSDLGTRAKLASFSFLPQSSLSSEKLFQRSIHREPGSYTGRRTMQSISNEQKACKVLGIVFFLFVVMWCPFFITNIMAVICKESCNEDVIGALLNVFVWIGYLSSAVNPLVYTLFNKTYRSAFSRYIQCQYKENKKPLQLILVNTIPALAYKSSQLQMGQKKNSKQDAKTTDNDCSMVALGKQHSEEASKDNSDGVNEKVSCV
T1 sequence (P41595 whole entry): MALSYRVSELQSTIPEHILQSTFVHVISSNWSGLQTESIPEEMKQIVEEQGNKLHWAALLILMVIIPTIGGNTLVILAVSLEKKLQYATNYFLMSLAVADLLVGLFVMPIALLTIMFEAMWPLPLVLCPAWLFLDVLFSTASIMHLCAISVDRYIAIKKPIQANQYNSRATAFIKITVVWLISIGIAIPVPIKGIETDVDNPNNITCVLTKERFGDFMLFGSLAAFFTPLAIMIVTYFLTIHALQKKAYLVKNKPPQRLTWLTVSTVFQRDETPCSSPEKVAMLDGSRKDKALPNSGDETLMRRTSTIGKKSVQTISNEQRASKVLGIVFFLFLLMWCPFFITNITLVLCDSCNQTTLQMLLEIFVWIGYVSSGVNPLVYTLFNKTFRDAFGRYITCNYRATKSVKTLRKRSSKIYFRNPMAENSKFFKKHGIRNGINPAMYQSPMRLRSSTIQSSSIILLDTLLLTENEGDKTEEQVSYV
T2 sequence (P28222 whole entry): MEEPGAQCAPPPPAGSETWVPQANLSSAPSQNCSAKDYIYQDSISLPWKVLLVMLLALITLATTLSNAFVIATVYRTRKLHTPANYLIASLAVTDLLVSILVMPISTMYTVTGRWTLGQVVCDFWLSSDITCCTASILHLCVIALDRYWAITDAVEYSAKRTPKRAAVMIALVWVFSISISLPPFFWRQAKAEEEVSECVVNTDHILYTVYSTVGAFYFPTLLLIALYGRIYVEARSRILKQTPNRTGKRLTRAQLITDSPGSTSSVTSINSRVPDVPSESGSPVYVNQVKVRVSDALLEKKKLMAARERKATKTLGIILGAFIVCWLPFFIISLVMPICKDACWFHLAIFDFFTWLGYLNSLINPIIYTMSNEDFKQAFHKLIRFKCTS

SMILES	Emax (5-HT2B receptor) [%]	Emax (5-HT1B receptor) [%]	Emax (5-HT2A receptor [1]) [%]	Emax (5-HT1A receptor) [%]	microsomal CLint (in vitro [2]) [µL/min/mg]	half-life (in vitro [2]) [min]	pEC50 (5-HT2B receptor)	microsomal CLint (in vitro [3]) [µL/min/mg]	half-life (in vitro [3]) [min]	microsomal CLint (in vitro [4]) [µL/min/mg]	half-life (in vitro [4]) [min]	pEC50 (5-HT2A receptor [1])	pKi (5-HT2A receptor [5])	pEC50 (5-HT1A receptor)
CCCN1C[C@H](C(=O)N(CC)CC)C=C2c3cccc4[nH]c(Br)c(c34)C[C@H]21 [Compound 9, (6aR,9R)-5-bromo-N,N-diethyl-7-propyl-4,6,6a,7,8,9-hexahydroindolo[4,3-fg]quinoline-9-carboxamide]	89.6	81.5	75.8	101										
C[C@H]1C[C@H](C)N1C(=O)[C@@H]1C=C2c3cccc4[nH]cc(c34)C[C@H]2N(CCCF)C1 [Compound 26, ((2S,4S)-2,4-dimethylazetidin-1-yl)((6aR,9R)-7-(3-fluoropropyl)-4,6,6a,7,8,9-hexahydroindolo[4,3-fg]quinolin-9-yl)methanone]	101	77.2	83.2	97.9										
C=CCN1C[C@H](C(=O)N2[C@@H](C)C[C@@H]2C)C=C2c3cccc4[nH]cc(c34)C[C@H]21 [Compound 27, ((6aR,9R)-7-allyl-4,6,6a,7,8,9-hexahydroindolo[4,3-fg]quinolin-9-yl)((2S,4S)-2,4-dimethylazetidin-1-yl)methanone]	96	96.9	81.1	90.8										
CN1C[C@H](C(=O)N(CCF)CCF)C=C2c3cccc4[nH]cc(c34)C[C@H]21 [Compound 38, (6aR,9R)—N,N-bis(2-fluoroethyl)-7-methyl-4,6,6a,7,8,9-hexahydroindolo[4,3-fg]quinoline-9-carboxamide]	28.1	94.7	93.4	90.5										
CCN(CC)C(=O)[C@H]1C=C2c3cccc4[nH]cc(c34)C[C@H]2N(CC2CCCC2)C1 [Compound 90a, (6aR,9S)-7-(cyclopentylmethyl)-N,N-diethyl-4,6,6a,7,8,9-hexahydroindolo[4,3-fg]quinoline-9-carboxamide]	21.9		25.7	135	712	1.9	< 5.00	158	8.8	288	4.8	< 6.00	7.26	< 4.00
CCCN(CC)C(=O)[C@@H]1C=C2c3cccc4[nH]cc(c34)C[C@H]2N(Cc2cccc(OC)c2)C1 [Compound 93, (6aR,9R)—N-ethyl-7-(3-methoxybenzyl)-N-propyl-4,6,6a,7,8,9-hexahydroindolo[4,3-fg]quinoline-9-carboxamide]	1.24		44.6	21.1	600	2.3	< 5.00	152	9.1	423	3.3	5.92	8.33	< 4.00
COc1cccc(CN2C[C@H](C(=O)N3[C@@H](C)C[C@@H]3C)C=C3c4cccc5[nH]cc(c45)C[C@H]32)c1 [Compound 94, ((2S,4S)-2,4-dimethylazetidin-1-yl)((6aR,9R)-7-(3-methoxybenzyl)-4,6,6a,7,8,9-hexahydroindolo[4,3-fg]quinolin-9-yl)methanone]	-1.21		30.4	64.8	1340	1	< 5.00	116	11.9	352	3.9	6.10	7.86	< 4.00
CC[C@@H](C)NC(=O)[C@@H]1C=C2c3cccc4[nH]cc(c34)C[C@H]2N(Cc2cccc(OC)c2)C1 [Compound 95, (6aR,9R)—N—((R)-sec-butyl)-7-(3-methoxybenzyl)-4,6,6a,7,8,9-hexahydroindolo[4,3-fg]quinoline-9-carboxamide]	0.13		63.8	63.2	2020	0.7	< 5.00	685	2	1600	0.9	6.19	7.81	4.37
CCN(CC)C(=O)[C@@H]1C=C2c3cccc4[nH]cc(c34)C[C@H]2N(Cc2cccc(C)c2)C1 [Compound 98, (6aR,9R)—N,N-diethyl-7-(3-methylbenzyl)-4,6,6a,7,8,9-hexahydroindolo[4,3-fg]quinoline-9-carboxamide]	3.37		76.5	31.2	470	3	< 5.00	91.4	15.2	717	1.9	6.37	8.08	< 4.00
CCN(CC)C(=O)[C@@H]1C=C2c3cccc4[nH]cc(c34)C[C@H]2N(Cc2ccc3ccccc3c2)C1 [Compound 100, (6aR,9R)—N,N-diethyl-7-(naphthalen-2-ylmethyl)-4,6,6a,7,8,9-hexahydroindolo[4,3-fg]quinoline-9-carboxamide]	18.4		74.6	68.4	117	11.8	< 5.00	43.9	31.6	167	8.3	5.97	8.42	4.68
CCN(CC)C(=O)[C@@H]1C=C2c3cccc4[nH]cc(c34)C[C@H]2N(Cc2cccc3ccccc23)C1 [Compound 101, (6aR,9R)—N,N-diethyl-7-(naphthalen-1-ylmethyl)-4,6,6a,7,8,9-hexahydroindolo[4,3-fg]quinoline-9-carboxamide]	11.7		86.5	61.8	483	2.9	< 5.00	84.6	16.4	525	2.6	6.57	7.61	4.15
